Results from PubChem BioAssay AID272 (DTP/NCI, 2004).
Values joined by “and” are separate entries in the source; they are usually repeats but may differ in a detail not shown here. Equal values may be shown once. Inconclusive results are not listed.

Tested on: Lewis lung carcinoma i.m., BDF1 mice, T/C %
Assay: NCI In Vivo Anticancer Drug Screen. Data for tumor model Lewis Lung Carcinoma (intramuscular) in B6D2F1 (BDF1) mice
Outline: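 Compound given to mice with transplantable tumours; survival or tumour size compared against the vehicle control group, reported as T divided by C.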

[1] = endpoint: mean tumor weight (est.), dose: 25.0 mg/kg/injection, schedule: Q01DX011 (ip), vehicle: saline with Tween-80, higher = larger tumour
[2] = endpoint: mean tumor weight (est.), dose: 50.0 mg/kg/injection, schedule: Q01DX011 (ip), vehicle: saline with Tween-80, higher = larger tumour
[3] = endpoint: mean tumor weight (est.), dose: 100.0 mg/kg/injection, schedule: Q01DX011 (ip), vehicle: saline with Tween-80, higher = larger tumour
[4] = endpoint: median survival time, dose: 12.5 mg/kg/injection, schedule: Q01DX011 (ip), vehicle: saline with Tween-80, higher = longer survival
[5] = endpoint: median survival time, dose: 25.0 mg/kg/injection, schedule: Q01DX011 (ip), vehicle: saline with Tween-80, higher = longer survival
[6] = endpoint: median survival time, dose: 50.0 mg/kg/injection, schedule: Q01DX011 (ip), vehicle: saline with Tween-80, higher = longer survival
[7] = endpoint: median survival time, dose: 100.0 mg/kg/injection, schedule: Q01DX011 (ip), vehicle: saline with Tween-80, higher = longer survival

CN(N=O)C(N)=O
T/C (endpoint: median survival time, dose: 3.12 mg/kg/injection, schedule: Q01DX015 (ip), vehicle: saline, higher = longer survival): 98 % of control | T/C (endpoint: median survival time, dose: 6.25 mg/kg/injection, schedule: Q01DX015 (ip), vehicle: saline, higher = longer survival): 103 % of control | T/C (endpoint: median survival time, dose: 6.25 mg/kg/injection, schedule: Q07DX003 (ip), vehicle: saline, higher = longer survival): 94 % of control | T/C (endpoint: median survival time, dose: 12.5 mg/kg/injection, schedule: Q01DX015 (ip), vehicle: saline, higher = longer survival): 115 % of control | T/C (endpoint: median survival time, dose: 12.5 mg/kg/injection, schedule: Q07DX003 (ip), vehicle: saline, higher = longer survival): 93 % of control | T/C (endpoint: median survival time, dose: 25.0 mg/kg/injection, schedule: Q07DX003 (ip), vehicle: saline, higher = longer survival): 86 % of control

CC(=O)NNC(=O)c1ccccn1
T/C (endpoint: median survival time, dose: 8.0 mg/kg/injection, schedule: Q01DX Z (ip), vehicle: other, higher = longer survival): 86 % of control | T/C (endpoint: median survival time, dose: 16.0 mg/kg/injection, schedule: Q01DX Z (ip), vehicle: other, higher = longer survival): 86 % of control | T/C (endpoint: median survival time, dose: 32.0 mg/kg/injection, schedule: Q01DX Z (ip), vehicle: other, higher = longer survival): 86 % of control | T/C (endpoint: median survival time, dose: 64.0 mg/kg/injection, schedule: Q01DX Z (ip), vehicle: other, higher = longer survival): 91 % of control

CN(C)c1nc(N(C)C)nc(N(C)C)n1
T/C [1]: 68 % of control | T/C [2]: 97 % of control | T/C [3]: 37 % of control | T/C (endpoint: mean tumor weight, dose: 62.5 mg/kg/injection, schedule: Q01DX011 (ip), vehicle: steriod suspending solution, higher = larger tumour): 68 % of control | T/C (endpoint: mean tumor weight, dose: 125.0 mg/kg/injection, schedule: Q01DX011 (ip), vehicle: steriod suspending solution, higher = larger tumour): 63 % of control | T/C (endpoint: median survival time, dose: 62.5 mg/kg/injection, schedule: Q01DX011 (ip), vehicle: steriod suspending solution, higher = longer survival): 100 % of control | T/C (endpoint: median survival time, dose: 125.0 mg/kg/injection, schedule: Q01DX011 (ip), vehicle: steriod suspending solution, higher = longer survival): 104 % of control

Cc1nn(CCO)c(C)c1N=[N+]([O-])c1c(C)nn(CCO)c1C
T/C (endpoint: median survival time, dose: 15.0 mg/kg/injection, schedule: Q02DX011 (ip), vehicle: saline with Tween-80, higher = longer survival): 105 % of control | T/C (endpoint: median survival time, dose: 30.0 mg/kg/injection, schedule: Q02DX011 (ip), vehicle: saline with Tween-80, higher = longer survival): 86 % of control | T/C (endpoint: median survival time, dose: 60.0 mg/kg/injection, schedule: Q02DX011 (ip), vehicle: saline with Tween-80, higher = longer survival): 97 % of control

CC(=O)c1c(O)c(C)c(O)c2c1OC1=CC(=O)C(C(C)=O)C(=O)C12C (centres undefined)
T/C (endpoint: mean tumor weight, dose: 53.0 mg/kg/injection, schedule: Q01DX011 (ip), vehicle: other, higher = larger tumour): 110 % of control | T/C (endpoint: mean tumor weight, dose: 79.0 mg/kg/injection, schedule: Q01DX011 (ip), vehicle: other, higher = larger tumour): 92 % of control | T/C (endpoint: mean tumor weight, dose: 118.0 mg/kg/injection, schedule: Q01DX011 (ip), vehicle: other, higher = larger tumour): 105 % of control | T/C (endpoint: mean tumor weight, dose: 177.0 mg/kg/injection, schedule: Q01DX011 (ip), vehicle: other, higher = larger tumour): 77 % of control | T/C (endpoint: median survival time, dose: 53.0 mg/kg/injection, schedule: Q01DX011 (ip), vehicle: other, higher = longer survival): 98 % of control | T/C (endpoint: median survival time, dose: 79.0 mg/kg/injection, schedule: Q01DX011 (ip), vehicle: other, higher = longer survival): 103 % of control | T/C (endpoint: median survival time, dose: 177.0 mg/kg/injection, schedule: Q01DX011 (ip), vehicle: other, higher = longer survival): 96 % of control

O=NN(CCCl)C(=O)NC1CCCCC1
T/C (endpoint: mean tumor weight, dose: 23.0 mg/kg/injection, schedule: Q01DX001 (sc), vehicle: saline, higher = larger tumour): 61 % of control | T/C (endpoint: mean tumor weight, dose: 39.0 mg/kg/injection, schedule: Q01DX001 (sc), vehicle: saline, higher = larger tumour): 40 % of control | T/C (endpoint: mean tumor weight, dose: 65.0 mg/kg/injection, schedule: Q01DX001 (sc), vehicle: saline, higher = larger tumour): 30 % of control | T/C (endpoint: mean tumor weight, dose: 108.0 mg/kg/injection, schedule: Q01DX001 (sc), vehicle: saline, higher = larger tumour): 30 % of control | T/C (endpoint: median survival time, dose: 4.0 mg/kg/injection, schedule: Q01DX011 (ip), vehicle: saline + alcohol, higher = longer survival): 92 % of control | T/C (endpoint: median survival time, dose: 4.0 mg/kg/injection, schedule: Q01DX011 (ip), vehicle: saline with Tween-80, higher = longer survival): 105 % of control | T/C (endpoint: median survival time, dose: 8.0 mg/kg/injection, schedule: Q01DX011 (ip), vehicle: saline + alcohol, higher = longer survival): 92 % of control | T/C (endpoint: median survival time, dose: 14.0 mg/kg/injection, schedule: Q01DX001 (ip), vehicle: saline, higher = longer survival): 108 % of control | T/C (endpoint: median survival time, dose: 16.0 mg/kg/injection, schedule: Q01DX012 (ip), vehicle: saline + alcohol, higher = longer survival): 87 % of control | T/C (endpoint: median survival time, dose: 23.0 mg/kg/injection, schedule: Q01DX001 (ip), vehicle: saline, higher = longer survival): 121 % of control | T/C (endpoint: median survival time, dose: 23.0 mg/kg/injection, schedule: Q07DX003 (ip), vehicle: saline, higher = longer survival): 87 % of control | T/C (endpoint: median survival time, dose: 39.0 mg/kg/injection, schedule: Q01DX001 (sc), vehicle: saline, higher = longer survival): 185 % of control | T/C (endpoint: median survival time, dose: 39.0 mg/kg/injection, schedule: Q07DX003 (ip), vehicle: saline, higher = longer survival): 120 % of control | T/C (endpoint: median survival time, dose: 65.0 mg/kg/injection, schedule: Q01DX001 (ip), vehicle: saline, higher = longer survival): 34 % of control | T/C (endpoint: median survival time, dose: 65.0 mg/kg/injection, schedule: Q01DX001 (sc), vehicle: saline, higher = longer survival): 191 % of control | T/C (endpoint: median survival time, dose: 108.0 mg/kg/injection, schedule: Q01DX001 (ip), vehicle: saline, higher = longer survival): 25 % of control | T/C (endpoint: median survival time, dose: 108.0 mg/kg/injection, schedule: Q01DX001 (sc), vehicle: saline, higher = longer survival): 166 % of control

CC1(C)N=C(N)N=C(N)N1c1ccc(CCc2ccccc2)cc1
T/C (endpoint: mean tumor weight, dose: 12.5 mg/kg/injection, schedule: Q01DX011 (ip), vehicle: saline, higher = larger tumour): 84 % of control | T/C (endpoint: mean tumor weight, dose: 25.0 mg/kg/injection, schedule: Q01DX011 (ip), vehicle: saline, higher = larger tumour): 46 % of control | T/C (endpoint: median survival time, dose: 12.5 mg/kg/injection, schedule: Q01DX011 (ip), vehicle: saline, higher = longer survival): 104 % of control | T/C (endpoint: median survival time, dose: 25.0 mg/kg/injection, schedule: Q01DX011 (ip), vehicle: saline, higher = longer survival): 89 % of control

CCCCNC(C)(C)COC(=O)/C=C/c1ccc(OCCCC)cc1
T/C (endpoint: mean tumor weight (est.), dose: 12.5 mg/kg/injection, schedule: Q01DX011 (ip), vehicle: saline with Tween-80, higher = larger tumour): 89 % of control | T/C [1]: 82 % of control | T/C [2]: 67 % of control | T/C [3]: 59 % of control | T/C [4]: 88 % of control | T/C [5]: 110 % of control | T/C [6]: 104 % of control | T/C [7]: 98 % of control

Nc1n[nH]c(N)n1
T/C (endpoint: mean tumor weight, dose: 125.0 mg/kg/injection, schedule: Q03HX024 (ip), vehicle: water, higher = larger tumour): 89 % of control | T/C (endpoint: mean tumor weight, dose: 250.0 mg/kg/injection, schedule: Q03HX024 (ip), vehicle: water, higher = larger tumour): 81 % of control | T/C (endpoint: mean tumor weight, dose: 750.0 mg/kg/injection, schedule: Q01DX009 (ip), vehicle: water, higher = larger tumour): 72 % of control | T/C (endpoint: mean tumor weight, dose: 750.0 mg/kg/injection, schedule: Q01DX011 (ip), vehicle: water, higher = larger tumour): 68 % of control | T/C (endpoint: median survival time, dose: 375.0 mg/kg/injection, schedule: Q01DX009 (ip), vehicle: water, higher = longer survival): 116 % of control | T/C (endpoint: median survival time, dose: 375.0 mg/kg/injection, schedule: Q01DX011 (ip), vehicle: water, higher = longer survival): 110 % of control | T/C (endpoint: median survival time, dose: 750.0 mg/kg/injection, schedule: Q01DX009 (ip), vehicle: water, higher = longer survival): 124 % of control | T/C (endpoint: median survival time, dose: 750.0 mg/kg/injection, schedule: Q01DX011 (ip), vehicle: water, higher = longer survival): 104 % of control | T/C (endpoint: median survival time, dose: 1500.0 mg/kg/injection, schedule: Q01DX011 (ip), vehicle: water, higher = longer survival): 124 % of control

CCCCn1cnc2c(=S)nc[nH]c21
T/C (endpoint: mean tumor weight, dose: 1.56 mg/kg/injection, schedule: Q01DX011 (ip), vehicle: other, higher = larger tumour): 89 % of control | T/C (endpoint: mean tumor weight, dose: 6.25 mg/kg/injection, schedule: Q01DX011 (ip), vehicle: other, higher = larger tumour): 85 % of control | T/C (endpoint: median survival time, dose: 1.56 mg/kg/injection, schedule: Q01DX011 (ip), vehicle: other, higher = longer survival): 94 % of control and 104 % of control | T/C (endpoint: median survival time, dose: 3.12 mg/kg/injection, schedule: Q01DX011 (ip), vehicle: other, higher = longer survival): 100 % of control | T/C (endpoint: median survival time, dose: 6.25 mg/kg/injection, schedule: Q01DX011 (ip), vehicle: other, higher = longer survival): 97 % of control and 108 % of control | T/C (endpoint: median survival time, dose: 12.5 mg/kg/injection, schedule: Q01DX011 (ip), vehicle: other, higher = longer survival): 110 % of control | T/C (endpoint: median survival time, dose: 25.0 mg/kg/injection, schedule: Q01DX011 (ip), vehicle: other, higher = longer survival): 116 % of control

CC1CC(C)(O)CC(C(O)CC2CC(=O)NC(=O)C2)C1=O (centres undefined)
T/C (endpoint: mean tumor weight, dose: 0.1 mg/kg/injection, schedule: Q01DX011 (ip), vehicle: saline, higher = larger tumour): 56 % of control | T/C (endpoint: median survival time, dose: 0.1 mg/kg/injection, schedule: Q01DX011 (ip), vehicle: saline, higher = longer survival): 90 % of control

C=CCNC(=O)NCC=C
T/C (endpoint: mean tumor weight, dose: 6.25 mg/kg/injection, schedule: Q01DX011 (ip), vehicle: saline with Tween-80, higher = larger tumour): 74 % of control | T/C (endpoint: mean tumor weight, dose: 12.5 mg/kg/injection, schedule: Q01DX011 (ip), vehicle: saline with Tween-80, higher = larger tumour): 69 % of control | T/C (endpoint: mean tumor weight, dose: 25.0 mg/kg/injection, schedule: Q01DX011 (ip), vehicle: saline with Tween-80, higher = larger tumour): 73 % of control | T/C (endpoint: mean tumor weight, dose: 50.0 mg/kg/injection, schedule: Q01DX011 (ip), vehicle: saline with Tween-80, higher = larger tumour): 76 % of control | T/C (endpoint: mean tumor weight, dose: 100.0 mg/kg/injection, schedule: Q01DX011 (ip), vehicle: saline with Tween-80, higher = larger tumour): 80 % of control | T/C (endpoint: median survival time, dose: 6.25 mg/kg/injection, schedule: Q01DX011 (ip), vehicle: saline with Tween-80, higher = longer survival): 113 % of control | T/C [4]: 108 % of control | T/C [5]: 113 % of control | T/C [6]: 86 % of control | T/C [7]: 100 % of control
